Calls of active or inactive are those of the source. The rule behind the calls is not given here.
Tests used:
[1] = Cytotoxicity against human K562 cells assessed as decrease in cell survival rate incubated for 72 hrs by MTS assay; type: toxicity, cell-based
[2] = Cytotoxicity against human K562/A02 cells overexpressing ABCB1 assessed as decrease in cell survival rate incubated for 72 hrs by MTS assay; type: toxicity, cell-based
K562 [3] = test: Reversal of ABCB1 mediated adriamycin resistance in human K562 assessed as decrease in survival rate at 1.25 to 5 uM preincubated for 1 hrs followed by adriamycin addition and measured after 72 hrs by MTS assay; type: functional, cell-based; settings: dose 1.25-5 µM, time 73.0 hrs
K562/A02 [4] = test: Reversal of ABCB1 mediated adriamycin resistance in human K562/A02 overexpressing ABCB1 assessed as decrease in survival rate at 1.25 to 5 uM preincubated for 1 hrs followed by adriamycin addition and measured after 72 hrs by MTS assay; type: functional, cell-based; settings: dose 1.25-5 µM, time 73.0 hrs
K562/A02 [5] = test: Reversal of ABCB1 mediated adriamycin resistance in human K562/A02 overexpressing ABCB1 assessed as decrease in survival rate at 5 uM preincubated for 1 hrs followed by adriamycin addition and measured after 72 hrs by MTS assay; type: functional
[6] = Cytotoxicity against human HEK293 cells assessed as reduction in cell viability incubated for 72 hrs by SRB assay; type: toxicity, cell-based
[7] = Cytotoxicity against human HEK293 cells expressing ABCG2 assessed as reduction in cell viability incubated for 72 hrs by SRB assay; type: toxicity, cell-based
HEK293 [8] = test: Reversal of ABCG2 mediated mitoxantrone resistance in human HEK293 assessed as decrease in survival rate at 1.25 to 5 uM preincubated for 1 hrs followed by mitoxantrone addition and measured after 72 hrs by SRB assay; type: functional, cell-based; settings: dose 1.25-5 µM, time 73.0 hrs
HEK293 [9] = test: Reversal of ABCG2 mediated mitoxantrone resistance in human HEK293 overexpressing ABCG2 assessed as decrease in survival rate at 1.25 to 5 uM preincubated for 1 hrs followed by mitoxantrone addition and measured after 72 hrs by SRB assay; type: functional, cell-based; settings: dose 1.25-5 µM, time 73.0 hrs
K562/A02 [10] = test: Reversal of ABCB1 mediated multidrug resistance in human K562/A02 cells overexpressing ABCB1 assessed as decrease in survival rate at 1.25 to 5 uM preincubated for 1 hrs followed by paclitaxel addition and measured after 72 hrs by MTS assay; type: functional, cell-based; settings: dose 1.25-5 µM, time 73.0 hrs
K562/A02 [11] = test: Reversal of ABCB1 mediated multidrug resistance in human K562/A02 cells overexpressing ABCB1 assessed as decrease in survival rate at 1.25 to 5 uM preincubated for 1 hrs followed by vincristine addition and measured after 72 hrs by MTS assay; type: functional, cell-based; settings: dose 1.25-5 µM, time 73.0 hrs
K562/A02 [12] = test: Reversal of ABCB1 mediated multidrug resistance in human K562/A02 cells overexpressing ABCB1 assessed as decrease in survival rate at 1.25 uM preincubated for 1 hrs followed by vincristine addition and measured after 72 hrs by MTS assay; type: functional; settings: time 73 hrs
HEK293 [13] = test: Reversal of ABCG2 mediated multidrug resistance in human HEK293 overexpressing ABCG2 assessed as decrease in survival rate at 1.25 to 5 uM preincubated for 1 hrs followed by adriamycin addition and measured after 72 hrs by SRB assay; type: functional, cell-based; settings: dose 1.25-5 µM, time 73.0 hrs
HEK293 [14] = test: Reversal of ABCG2 mediated multidrug resistance in human HEK293 overexpressing ABCG2 assessed as decrease in survival rate at 1.25 to 5 uM preincubated for 1 hrs followed by topotecan addition and measured after 72 hrs by SRB assay; type: functional, cell-based; settings: dose 1.25-5 µM, time 73.0 hrs
K562/A02 [15] = test: Reversal of ABCB1 mediated multidrug resistance in human K562/A02 cells overexpressing ABCB1 assessed as change in ABCB1 protein expression level at 2.5 uM incubated for 72 hrs by Western blot analysis; type: functional, cell-based
HEK293 [16] = test: Reversal of ABCG2 mediated multidrug resistance in human HEK293 cells overexpressing ABCG2 assessed as change in ABCG2 protein expression level at 2.5 uM incubated for 48 hrs by Western blot analysis; type: functional, cell-based
K562/A02 [17] = test: Reversal of ABCB1 mediated multidrug resistance in human K562/A02 cells overexpressing ABCB1 assessed as change in abcb1 mRNA expression level at 2.5 uM incubated for 72 hrs by real time RT-PCR analysis; type: functional, cell-based
HEK293 [18] = test: Reversal of ABCG2 mediated multidrug resistance in human HEK293 cells overexpressing ABCG2 assessed as change in abcg2 mRNA expression level at 2.5 uM incubated for 48 hrs by real time RT-PCR analysis; type: functional, cell-based
[19] = biological target: ATP-dependent translocase ABCB1 (Homo sapiens, UniProt P08183); test: Inhibition of ABCB1 (unknown origin) ATPase activity assessed as decrease in luminescence by firefly luciferase reporter assay
[20] = biological target: T1, Broad substrate specificity ATP-binding cassette transporter ABCG2 (Homo sapiens, UniProt Q9UNQ0); test: Inhibition of ABCG2 (unknown origin) ATPase activity assessed as decrease in luminescence by firefly luciferase reporter assay
T1 sequence (Q9UNQ0 whole entry): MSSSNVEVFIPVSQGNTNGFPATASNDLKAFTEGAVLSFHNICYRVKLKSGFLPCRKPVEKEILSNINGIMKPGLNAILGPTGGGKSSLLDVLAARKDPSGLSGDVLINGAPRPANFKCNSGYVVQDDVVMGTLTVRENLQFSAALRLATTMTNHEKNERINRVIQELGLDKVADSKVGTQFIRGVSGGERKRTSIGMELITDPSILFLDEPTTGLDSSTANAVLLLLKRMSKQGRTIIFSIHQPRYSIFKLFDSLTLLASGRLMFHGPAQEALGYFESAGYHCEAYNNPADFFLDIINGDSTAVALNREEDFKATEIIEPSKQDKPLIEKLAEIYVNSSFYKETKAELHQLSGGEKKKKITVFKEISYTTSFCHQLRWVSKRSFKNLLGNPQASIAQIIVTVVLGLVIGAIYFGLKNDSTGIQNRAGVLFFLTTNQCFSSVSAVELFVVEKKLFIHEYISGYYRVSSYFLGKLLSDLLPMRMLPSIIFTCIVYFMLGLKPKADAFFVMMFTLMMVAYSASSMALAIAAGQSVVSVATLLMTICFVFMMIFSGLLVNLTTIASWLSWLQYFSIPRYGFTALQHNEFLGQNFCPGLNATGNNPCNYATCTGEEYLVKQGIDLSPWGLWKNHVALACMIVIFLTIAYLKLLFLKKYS

[21] = Stability in rat plasma assessed as parent compound remaining at 80 ug/ml and measured after 300 mins by LC-MS/MS analysis; type: ADME, cell-free; settings: 5 h, at 80 µg/mL
[22] = Metabolic stability in rat liver microsomes assessed as half life at 80 ug/ml preincubated for 5 mins followed by NADPH addition and measured upto 120 mins by LC-MS/MS analysis; type: ADME, Microsome; settings: dose 80 µg/ml, time < 125 min
[23] = Metabolic stability in rat liver microsomes assessed as intrinsic clearance at 80 ug/ml preincubated for 5 mins followed by NADPH addition and measured upto 120 mins by LC-MS/MS analysis; type: ADME, Microsome; settings: dose 80 µg/ml, time < 125 min, read-out: CLH
[24] = AUCt in Sprague-Dawley rat at 5 mg/kg, iv by LC-MS/MS analysis; type: ADME, organism-based; set-up: dose 5 mg/kg, route iv; settings: in vivo
[25] = AUC (0 to infinity) in Sprague-Dawley rat at 5 mg/kg, iv by LC-MS/MS analysis; type: ADME, organism-based; set-up: dose 5 mg/kg, route iv; settings: in vivo
[26] = Volume of distribution at steady state in Sprague-Dawley rat at 5 mg/kg, iv by LC-MS/MS analysis; type: ADME, organism-based; settings: in vivo, read-out: Vdss
[27] = Clearance in Sprague-Dawley rat at 5 mg/kg, iv by LC-MS/MS analysis; type: ADME, organism-based; settings: in vivo
[28] = Half life in Sprague-Dawley rat at 5 mg/kg, iv by LC-MS/MS analysis; type: ADME, organism-based; settings: in vivo
[29] = Toxicity in iv dosed BALB/c mouse xenografted with human K562/A02 cells overexpressing ABCB1 assessed as lethality; type: organism-based; settings: in vivo
K562 [30] = test: Antitumor activity against human K562 cells xenografted in BALB/c mouse assessed as tumor growth inhibition at 40 mg/kg, iv QD for 14 days in presence of adriamycin; type: functional, organism-based; settings: time 14.0 day
K562/A02 [31] = test: Antitumor activity against human K562/A02 cells overexpressing ABCB1 xenografted in BALB/c mouse assessed as tumor growth inhibition at 40 mg/kg, iv QD for 14 days in presence of adriamycin; type: functional, organism-based; settings: time 14.0 day
[32] = Toxicity in BALB/c mouse xenografted with human K562 cells assessed as body weight loss at 10 to 40 mg/kg, iv QD for 14 days in presence of adriamycin; type: organism-based; settings: in vivo, 336 h, dose 10-40 mg/kg, time 14 day
[33] = Toxicity in BALB/c mouse xenografted with human K562 cells assessed as body weight loss at 20 mg/kg, iv QD for 14 days; type: organism-based; settings: in vivo, 336 h, time 14 day
[34] = Toxicity in BALB/c mouse xenografted with human K562/A02 cells overexpressing ABCB1 assessed as body weight loss at 10 to 40 mg/kg, iv QD for 14 days in presence of adriamycin; type: organism-based; settings: in vivo, 336 h, dose 10-40 mg/kg, time 14 day
[35] = Toxicity in BALB/c mouse xenografted with human K562/A02 cells overexpressing ABCB1 assessed as body weight loss at 20 mg/kg, iv QD for 14 days; type: organism-based; settings: in vivo, 336 h, time 14 day

Sequence of ATP-dependent translocase ABCB1 (P08183 whole entry): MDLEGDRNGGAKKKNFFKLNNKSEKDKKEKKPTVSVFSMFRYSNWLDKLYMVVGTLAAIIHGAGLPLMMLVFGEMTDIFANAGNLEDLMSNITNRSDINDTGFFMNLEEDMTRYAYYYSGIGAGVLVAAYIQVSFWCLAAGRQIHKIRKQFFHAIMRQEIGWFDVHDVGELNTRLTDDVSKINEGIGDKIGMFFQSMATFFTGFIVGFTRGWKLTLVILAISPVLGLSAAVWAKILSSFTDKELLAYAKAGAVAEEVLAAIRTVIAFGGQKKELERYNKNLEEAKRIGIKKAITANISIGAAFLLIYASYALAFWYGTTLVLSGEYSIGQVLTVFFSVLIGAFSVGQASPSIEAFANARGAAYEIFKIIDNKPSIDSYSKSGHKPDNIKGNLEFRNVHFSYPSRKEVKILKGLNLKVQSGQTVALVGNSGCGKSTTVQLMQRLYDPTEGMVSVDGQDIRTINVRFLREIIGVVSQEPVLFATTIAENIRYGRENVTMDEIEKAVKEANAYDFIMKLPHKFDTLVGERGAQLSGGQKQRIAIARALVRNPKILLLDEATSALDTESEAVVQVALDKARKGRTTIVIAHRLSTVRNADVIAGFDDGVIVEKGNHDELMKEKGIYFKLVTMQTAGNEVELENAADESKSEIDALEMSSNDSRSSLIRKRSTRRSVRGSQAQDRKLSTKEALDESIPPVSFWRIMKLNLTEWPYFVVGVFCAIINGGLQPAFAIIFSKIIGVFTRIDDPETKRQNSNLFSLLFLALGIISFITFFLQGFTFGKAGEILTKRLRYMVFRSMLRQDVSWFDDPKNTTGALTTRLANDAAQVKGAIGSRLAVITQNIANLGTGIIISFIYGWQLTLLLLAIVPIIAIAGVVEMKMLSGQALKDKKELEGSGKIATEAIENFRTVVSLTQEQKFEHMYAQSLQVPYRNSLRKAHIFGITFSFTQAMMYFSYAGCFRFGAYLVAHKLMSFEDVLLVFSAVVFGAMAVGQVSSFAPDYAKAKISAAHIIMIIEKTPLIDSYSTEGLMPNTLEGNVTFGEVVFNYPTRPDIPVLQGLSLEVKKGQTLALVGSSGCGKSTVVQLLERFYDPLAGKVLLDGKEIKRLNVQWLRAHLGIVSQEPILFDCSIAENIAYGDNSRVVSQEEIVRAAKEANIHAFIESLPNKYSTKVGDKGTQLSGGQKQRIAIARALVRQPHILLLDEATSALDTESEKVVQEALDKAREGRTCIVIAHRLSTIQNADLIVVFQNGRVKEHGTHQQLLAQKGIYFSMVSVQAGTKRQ

## O=C(CN1CCN(c2ccc(OC(F)(F)F)cc2)CC1)Nc1ccc(-c2nc3ccccn3c2CN2CCN(c3ccccc3)CC2)cc1
[1]
  IC50 at 72 h: > 100 µM
[2]
  IC50 at 72 h: > 100 µM
K562 [3]
  Activity: inactive
K562/A02 [4]
  Activity: Active
K562/A02 [5]
  Activity: <30%
[6]
  IC50 at 72 h: 53.4 µM
[7]
  IC50 at 72 h: 67.7 µM
HEK293 [8]
  Activity: inactive
HEK293 [9]
  Activity: Active
K562/A02 [10]
  Activity: Active
K562/A02 [11]
  Activity: Active
K562/A02 [12]
  Activity: 56%
HEK293 [13]
  Activity: Active
HEK293 [14]
  Activity: Active
K562/A02 [15]
  Activity: inactive
HEK293 [16]
  Activity: inactive
K562/A02 [17]
  Activity: inactive
HEK293 [18]
  Activity: inactive
[19]
  inhibition (INH): Active
[20]
  inhibition (INH): Active
[21]
  Stability: Stable
[22]
  half-life at 80 ug/ml: 1.02 h
[23]
  microsomal CLint at 80 ug/ml: 2.27 µL/min/mg
[24]
  AUC(0-t): 651 ng·h/mL
[25]
  AUC(0-inf): 676 ng·h/mL
[26]
  Vd: 9.41 L/kg
[27]
  clearance: 130 mL/min/kg
[28]
  half-life: 2.25 h
[29]
  LD50: > 200 mg/kg/day
K562 [30]
  Activity: inactive
K562/A02 [31]
  Activity: Active
[32]
  Activity: Non-Toxic
[33]
  Activity: Non-Toxic
[34]
  Activity: Non-Toxic
[35]
  Activity: Non-Toxic

— ChEMBL document CHEMBL5380807, “Imidazo[1,2-a]Pyridine Derivatives as Novel Dual-Target Inhibitors of ABCB1 and ABCG2 for Reversing Multidrug Resistance” (J Med Chem, 2023)
